# Test results: ChEMBL document CHEMBL5518218, “Discovery of Novel PD-L1 Small-Molecular Inhibitors with Potent In Vivo Anti-tumor Immune Activity” (J Med Chem, 2024)
# The source made the active and inactive calls. The rule behind the calls is not given here.
# Legend:
# [1] = Prodrug conversion in Sprague-Dawley rat assessed as half life of (2-(benzo[c][1,2,5]oxadiazol-5-ylmethoxy)-5-chloro-4-((2-fluoro-3'-(3-(4-hydroxypiperidin-1-yl)propoxy)-[1,1'-biphenyl]-3-yl)methoxy)benzyl)-D-serine at 45 mg/kg measured upto 24 hrs by LC-MS/MS analysis; type: ADME, organism-based; settings: in vivo, po
# [2] = Prodrug conversion in C57BL/6 mouse assessed as half life of (2-(benzo[c][1,2,5]oxadiazol-5-ylmethoxy)-5-chloro-4-((2-fluoro-3'-(3-(4-hydroxypiperidin-1-yl)propoxy)-[1,1'-biphenyl]-3-yl)methoxy)benzyl)-D-serine at 2 mg/kg, iv measured upto 24 hrs by LC-MS/MS analysis; type: ADME, organism-based; settings: in vivo
# [3] = Prodrug conversion in Sprague-Dawley rat assessed as AUC (0 to t) of (2-(benzo[c][1,2,5]oxadiazol-5-ylmethoxy)-5-chloro-4-((2-fluoro-3'-(3-(4-hydroxypiperidin-1-yl)propoxy)-[1,1'-biphenyl]-3-yl)methoxy)benzyl)-D-serine at 9 mg/kg, iv measured upto 24 hrs by LC-MS/MS analysis; type: ADME, organism-based; settings: in vivo
# [4] = Prodrug conversion in C57BL/6 mouse assessed as AUC (0 to t) of (2-(benzo[c][1,2,5]oxadiazol-5-ylmethoxy)-5-chloro-4-((2-fluoro-3'-(3-(4-hydroxypiperidin-1-yl)propoxy)-[1,1'-biphenyl]-3-yl)methoxy)benzyl)-D-serine at 2 mg/kg, iv measured upto 24 hrs by LC-MS/MS analysis; type: ADME, organism-based; settings: in vivo
# MC-38 [5] = test: Antitumor activity against mouse MC38 cells implanted in po dosed C57BL/6J mouse assessed as reduction in tumor growth; type: functional, organism-based; settings: dose 5-25 mg/kg
# [6] = Prodrug conversion in Sprague-Dawley rat assessed as AUC (0 to t) of (2-(benzo[c][1,2,5]oxadiazol-5-ylmethoxy)-5-chloro-4-((2-fluoro-3'-(3-(4-hydroxypiperidin-1-yl)propoxy)-[1,1'-biphenyl]-3-yl)methoxy)benzyl)-D-serine at 45 mg/kg, po measured upto 24 hrs by LC-MS/MS analysis; type: ADME, organism-based; settings: in vivo
# [7] = Prodrug conversion in C57BL/6 mouse assessed as oral bioavailability of (2-(benzo[c][1,2,5]oxadiazol-5-ylmethoxy)-5-chloro-4-((2-fluoro-3'-(3-(4-hydroxypiperidin-1-yl)propoxy)-[1,1'-biphenyl]-3-yl)methoxy)benzyl)-D-serine at 10 mg/kg measured upto 24 hrs by LC-MS/MS analysis; type: ADME, organism-based; settings: in vivo
# [8] = Prodrug conversion in C57BL/6 mouse assessed as Tmax of (2-(benzo[c][1,2,5]oxadiazol-5-ylmethoxy)-5-chloro-4-((2-fluoro-3'-(3-(4-hydroxypiperidin-1-yl)propoxy)-[1,1'-biphenyl]-3-yl)methoxy)benzyl)-D-serine at 10 mg/kg, po measured upto 24 hrs by LC-MS/MS analysis; type: ADME, organism-based; settings: in vivo
# CT26 [9] = test: Antitumor activity against mouse CT26 cells implanted in BALB/c mouse assessed as tumor growth inhibition at 10 mg/kg, ip measured at 8 to 14 days; type: functional; settings: time 8-14 day, read-out: TGI
# [10] = Prodrug conversion in Sprague-Dawley rat assessed as oral bioavailability of (2-(benzo[c][1,2,5]oxadiazol-5-ylmethoxy)-5-chloro-4-((2-fluoro-3'-(3-(4-hydroxypiperidin-1-yl)propoxy)-[1,1'-biphenyl]-3-yl)methoxy)benzyl)-D-serine at 45 mg/kg measured upto 24 hrs by LC-MS/MS analysis; type: ADME, organism-based; settings: in vivo
# [11] = Prodrug conversion in Sprague-Dawley rat assessed as clearance of (2-(benzo[c][1,2,5]oxadiazol-5-ylmethoxy)-5-chloro-4-((2-fluoro-3'-(3-(4-hydroxypiperidin-1-yl)propoxy)-[1,1'-biphenyl]-3-yl)methoxy)benzyl)-D-serine at 9 mg/kg, iv measured upto 24 hrs by LC-MS/MS analysis; type: ADME, organism-based; settings: in vivo
# [12] = target: Programmed cell death protein 1/Programmed cell death 1 ligand 1 (Homo sapiens, UniProt Q9NZQ7); test: Inhibition of PD-1/PD-L1 interaction (unknown origin) incubated for 15 min by HTRF assay; type: protein-complex assay
# Chain of Programmed cell death protein 1/Programmed cell death 1 ligand 1 (Q15116 whole entry): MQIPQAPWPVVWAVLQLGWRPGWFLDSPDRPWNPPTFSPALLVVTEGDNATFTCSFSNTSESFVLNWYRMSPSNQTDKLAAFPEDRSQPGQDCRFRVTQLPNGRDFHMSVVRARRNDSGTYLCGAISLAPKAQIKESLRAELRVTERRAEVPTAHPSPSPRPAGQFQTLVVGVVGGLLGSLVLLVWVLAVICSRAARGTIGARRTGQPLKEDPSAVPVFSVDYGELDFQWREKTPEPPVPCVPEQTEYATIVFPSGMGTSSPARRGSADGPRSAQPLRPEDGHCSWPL
# Chain of Programmed cell death protein 1/Programmed cell death 1 ligand 1 (Q9NZQ7 whole entry): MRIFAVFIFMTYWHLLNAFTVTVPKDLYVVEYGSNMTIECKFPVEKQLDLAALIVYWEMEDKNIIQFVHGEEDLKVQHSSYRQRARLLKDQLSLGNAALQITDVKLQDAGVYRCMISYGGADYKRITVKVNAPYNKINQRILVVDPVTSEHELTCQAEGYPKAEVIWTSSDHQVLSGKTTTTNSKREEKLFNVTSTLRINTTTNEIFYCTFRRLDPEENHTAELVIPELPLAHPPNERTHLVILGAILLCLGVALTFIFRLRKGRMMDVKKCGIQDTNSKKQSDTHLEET
# [13] = Acute toxicity in mouse assessed as mortality at 1000 mg/kg, po administered as single dose for 14 days; type: organism-based; settings: in vivo, 336 h, time 14 day
# CT26 [14] = test: Cytotoxicity against mouse CT26 cells assessed as effect on cell viability at 0.07 to 150 uM incubated for 48 hrs by CCK-8 assay; type: functional, cell-based; settings: dose 0.07-150 µM
# MC-38 [15] = test: Cytotoxicity against mouse MC38 cells assessed as effect on cell viability at 0.07 to 150 uM incubated for 48 hrs by CCK-8 assay; type: functional, cell-based; settings: dose 0.07-150 µM
# [16] = Prodrug conversion in C57BL/6 mouse assessed as Tmax of (2-(benzo[c][1,2,5]oxadiazol-5-ylmethoxy)-5-chloro-4-((2-fluoro-3'-(3-(4-hydroxypiperidin-1-yl)propoxy)-[1,1'-biphenyl]-3-yl)methoxy)benzyl)-D-serine at 2 mg/kg, iv measured upto 24 hrs by LC-MS/MS analysis; type: ADME, organism-based; settings: in vivo
# CT26 [17] = test: Antitumor activity against mouse CT26 cells implanted in BALB/c mouse assessed as tumor growth inhibition at 25 mg/kg, ip measured for 18 days; type: functional; settings: CT26, 432 h, time 18 day, read-out: TGI
# [18] = Prodrug conversion in C57BL/6 mouse assessed as half life of (2-(benzo[c][1,2,5]oxadiazol-5-ylmethoxy)-5-chloro-4-((2-fluoro-3'-(3-(4-hydroxypiperidin-1-yl)propoxy)-[1,1'-biphenyl]-3-yl)methoxy)benzyl)-D-serine at 10 mg/kg, po measured upto 24 hrs by LC-MS/MS analysis; type: ADME, organism-based; settings: in vivo
# MC-38 [19] = test: Antitumor activity against mouse MC38 cells implanted in C57BL/6J mouse assessed as tumor growth inhibition at 5 mg/kg, po measured for 20 days; type: functional; settings: MC-38, 480 h, time 20 day, read-out: TGI
# [20] = Prodrug conversion in C57BL/6 mouse assessed as Cmax of (2-(benzo[c][1,2,5]oxadiazol-5-ylmethoxy)-5-chloro-4-((2-fluoro-3'-(3-(4-hydroxypiperidin-1-yl)propoxy)-[1,1'-biphenyl]-3-yl)methoxy)benzyl)-D-serine at 2 mg/kg, iv measured upto 24 hrs by LC-MS/MS analysis; type: ADME, organism-based; settings: in vivo
# MC-38 [21] = test: Antitumor activity against mouse MC38 cells implanted in C57BL/6J mouse assessed as tumor growth inhibition at 25 mg/kg, po measured for 20 days; type: functional; settings: MC-38, 480 h, time 20 day, read-out: TGI
# [22] = Prodrug conversion in C57BL/6 mouse assessed as clearance of (2-(benzo[c][1,2,5]oxadiazol-5-ylmethoxy)-5-chloro-4-((2-fluoro-3'-(3-(4-hydroxypiperidin-1-yl)propoxy)-[1,1'-biphenyl]-3-yl)methoxy)benzyl)-D-serine at 2 mg/kg, iv measured upto 24 hrs by LC-MS/MS analysis; type: ADME, organism-based; settings: in vivo
# [23] = Lipophilicity, log D of the compound at pH 7.4; type: physicochemical; settings: buffer
# [24] = Prodrug conversion in C57BL/6 mouse assessed as AUC (0 to t) of (2-(benzo[c][1,2,5]oxadiazol-5-ylmethoxy)-5-chloro-4-((2-fluoro-3'-(3-(4-hydroxypiperidin-1-yl)propoxy)-[1,1'-biphenyl]-3-yl)methoxy)benzyl)-D-serine at 10 mg/kg, po measured upto 24 hrs by LC-MS/MS analysis; type: ADME, organism-based; settings: in vivo
# CT26 [25] = test: Antitumor activity against mouse CT26 cells implanted in BALB/c mouse assessed as increase in INF-gamma level at 25 mg/kg, ip measured for 20 days; type: functional, organism-based; settings: time 20.0 day
structure (smiles),measurement,setting,value
CCOC(=O)[C@@H](CO)NCc1cc(Cl)c(OCc2cccc(-c3cccc(OCCCN4CCC(O)CC4)c3)c2F)cc1OCc1ccc2nonc2c1.Cl.Cl,t1/2,[1],4.3 h
same,t1/2,[2],1.7 h
same,AUCt,[3],2373.5 ng·h/mL
same,AUCt,[4],531.6 ng·h/mL
same,Activity,MC-38 [5],Dose-Dependent Effect
same,AUCt,[6],405.6 ng·h/mL
same,F,[7],11.5%
same,Tmax,[8],0.7 h
same,inhibition in vivo at 10 mg/kg,CT26 [9],21.9%
same,F,[10],3.4%
same,CL,[11],23.77 mL/min/kg
same,IC50,[12],0.786 µM
same,Activity,[13],Non-Toxic
same,Activity,CT26 [14],inactive
same,Activity,MC-38 [15],inactive
same,Tmax,[16],4.8 min
same,inhibition in vivo at 25 mg/kg,CT26 [17],54.8%
same,t1/2,[18],1.6 h
same,inhibition in vivo at 5 mg/kg,MC-38 [19],49.2%
same,Cmax,[20],872.3 ng/mL
same,inhibition in vivo at 25 mg/kg,MC-38 [21],73.6%
same,CL,[22],61.845 mL/min/kg
same,logD,[23],1.59
same,AUCt,[24],315.6 ng·h/mL
same,Activity,CT26 [25],Active
